The text below walks through data of publication PMC10671498, “Antiproliferative and Cytotoxic Properties of Propynoyl Betulin Derivatives against Human Ovarian Cancer Cells: In Vitro Studies” (International Journal of Molecular Sciences, 2023).

Data set [1] concerns SK-OV-3 cells. The data set can be described thus: SRB cell proliferation assay, SK-OV-3. Type of data set: cell-based, human. The conditions noted are these: for IC50: Homo sapiens. The method, then:
This study used ovarian cancer cell lines, which are part of the panel of cell lines used as part of the NCI-60 Human Cell Lines Screen program, characterized by overexpression of the c-erbB2/neu (HER2) receptor [62, 63]. The human ovarian cancer cell lines (SK-OV-3 and OVCAR-3) were purchased from the American Type Culture Collection (ATCC®, Manassas, Virginia, USA). SK-OV-3 cells (ATCC No. HTB-77™) were cultured in McCoy’s 5A medium containing D-glucose (3 g/L), L-glutamine (0.219 g/L), and sodium bicarbonate (2.2 g/L) supplemented with 10% fetal bovine serum, 10 mM HEPES (pH 7.3–7.5), 100 U/mL penicillin, and 100 μg/mL streptomycin (all from Sigma Aldrich).
(§1) Betulin 1 and its derivatives were dissolved in dimethyl sulfoxide (DMSO; Sigma Aldrich) as a 15 mM stock solution. Working solutions were prepared through the dilution of stock solutions with culture medium. The final DMSO concentration in culture media was adjusted to 0.2%. The effect of tested compounds on the proliferation of SK-OV-3 and OVCAR-3 cells was measured using the In Vitro Toxicology Assay Kit, Sulforhodamine B based (Sigma Aldrich). Cells were seeded in 96-well plates (Greiner Bio-One, Kremsmünster, Austria) at an initial density of 3 × 10^3 cells per well in 200 µL of culture medium. After 24 h of incubation, betulin 1 and its derivatives at a concentration range of 0.1 μM to 30 μM were added to the wells. Control cultures were treated with vehicle alone (0.2% DMSO). The incubation periods for cells with test compounds were 1 day, 3 days, and 5 days. After appropriate incubation periods, culture media were removed, and cells were fixed in 10% trichloroacetic acid solution for 60 min at 4 °C. After fixation, the TCA solution was removed, and the plates were washed three times with deionized water (300 μL/well) and dried. At the next step, cells were stained with 0.4% sulforhodamine B for 30 min. The excess dye was removed by washing three times with 1% (vol/vol) acetic acid. The protein-bound dye was dissolved in 200 μL 10 mM Tris base solution. Absorbance was measured at 570 nm and 690 nm (reference wavelength) using the MRX Revelation plate reader (Dynex Technologies, Chantilly, VA, USA).
(§2) GraphPad Prism 10.0.2 (GraphPad Software Inc., San Diego, CA, USA) software was used for calculations and the statistical analysis of the IC50 values (Table 1). IC50 was determined by using the “nonlinear regression” mode, and the “log(inhibitor) vs. normalised response—Variable slope” equation was chosen in GraphPad Prism software for calculations. The obtained data were normalized to run from 100% down to 0%, and logarithms of concentration were used. Graphs (Figure 2, Figure 3, Figure 4, Figure 5 and Figure 8, and Supplementary Figure S1) were also prepared using this software. In the case of the lack of normal distribution or homogeneity of variances, the remaining results were analyzed using a non-parametric Kruskal–Wallis test with multiple comparisons. Post hoc analysis was performed with the non-parametric equivalent of Tukey’s test. A p value of <0.05 was considered statistically significant. Otherwise, a one-way ANOVA followed by a Tukey’s post hoc test was applied. t-tests was used to perform pairwise comparisons between group means. Analysis was performed using Statistica 13.1 software (StatSoft, Tulsa, OK, USA).

Data set [2] has as its system CCRF/CEM cells. Also noted: method as in PMID 30947097. The following applies: cited from earlier work.
The test system of data set [3] is P388 cells. Also noted: method as in PMID 30947097. The conditions noted are these: cited from earlier work.
The subject of data set [4] is A549 cells. More on the design: method as in PMID 30947097. The following applies: cited from earlier work.
Data set [5] concerns Hs294T cells. More on the design: method as in PMID 30947097. The following applies: cited from earlier work.
Data set [6] concerns OVCAR-3 cells. The data set can be described thus: LDH release assay, OVCAR-3. Type of data set: cell-based, human. The following applies: OVCAR-3, 24 h, all concentrations (3, 10, 30 μM). As for the experimental part:
(§3) In order to evaluate the cytotoxic effect, the release of LDH into the culture medium using the In Vitro Toxicology Assay Kit, Lactic Dehydrogenase Based (TOX7; Sigma Aldrich) was assessed. SK-OV-3 and OVCAR-3 cells were plated and cultured in 96-well plates (Greiner Bio-One) at the initial density of 5 × 10^3 cells per well in 100 µL of culture medium. The density of the cells was determined in the same manner as in the SRB assay. After 24 h, the media were replaced with the working solutions, which contained appropriate test compounds at concentrations of 3 μM, 10 μM, 30 μM, and control medium (0.2% DMSO). Cells were exposed to the test substances for 24 h. The background control comprised wells without cells with only control medium. To determine the maximal LDH release (high control), half of the control cultures were treated with lysis buffer. Wells with untreated cells were used as the low control of the assay. LDH activity in media was assessed according to the manufacturer’s protocol. The absorbance was measured at wavelengths of 490 nm and 690 nm (background), and the percentage of released enzyme was calculated for cells growing in the presence of compounds according to the formula:Cytotoxicity [%] = [(AT − AL)/(AH − AL)] × 100 where AT is the absorbance of treated wells; AL is low control; and AH is high control (maximal LDH release).
(§4) Cytotoxicity was expressed as a percentage of the released LDH calculated according to the difference between the absorbance of the treated and low control wells divided by the difference between the absorbance of the high control and low control wells.
On the technique in general: Release of lactate dehydrogenase indicates damage to the cell membrane.

The test system of data set [7] is MV-4-11 cells. Also noted: method as in PMID 30947097. The conditions noted are these: cited from earlier work.
In data set [8] the test system is OVCAR-3 cells. Nature of the data set: SRB cell proliferation assay, OVCAR-3. The data set is classed as cell-based, human. The conditions noted are these: for IC50: Homo sapiens. As for the experimental part:
OVCAR-3 cells (ATCC No. HTB-161™) were cultured in RPMI-1640 medium containing HEPES buffer (2.383 g/L), sodium bicarbonate (1.5 g/L), sodium pyruvate (0.11 g/L) supplemented with 20% fetal bovine serum, 10 µg/mL bovine insulin, 100 U/mL penicillin, and 100 μg/mL streptomycin (all from Sigma Aldrich).
as §1, §2

Data set [9] concerns SK-OV-3 cells. The data set can be described thus: LDH release assay, SK-OV-3. Type of data set: cell-based, human. The following applies: SK-OV-3, 24 h, all concentrations (3, 10, 30 μM). As for the experimental part:
as §3, §4

Data set [10] concerns DU145 cells. More on the design: method as in PMID 30947097. The conditions noted are these: cited from earlier work.
The subject of data set [11] is 18Co normal myofibroblasts. The data set can be described thus: SRB cell proliferation assay, 18Co normal myofibroblasts. Type of data set: cell-based. As for the experimental part: Next, 18Co cells (ATCC No. CRL-1459™) were cultured in MEM medium containing HEPES buffer, 10% fetal bovine serum, 100 U/mL penicillin, and 100 μg/mL streptomycin (all from Sigma Aldrich).
as §1, §2

With `C#CC(=O)OC[C@]12CC[C@@H](C(=C)C)C1C1CCC3[C@@]4(C)CC[C@H](OP(=O)(OCC)OCC)C(C)(C)C4CC[C@@]3(C)[C@]1(C)CC2` (stereo partly shown) [Compound 3, 3-O-diethoxyphosphorylbetulin-28-O-propynoylbetulin], the concentration for half-maximal inhibition (IC50) was 290 nM in data set [1] (SK-OV-3, 72 h); 340 nM in [1] (SK-OV-3, 120 h); 900 nM in data set [8] (OVCAR-3, 72 h); 490 nM in data set [8] (OVCAR-3, 120 h); “Neg” in [11] (18Co, 5 days treatment, Neg: negative in the concentration used); 12400 nM in [11] (72 h). Also, the “concentration at which antiproliferative activity (decrease in the number of cells) was evident” value in data set [1] (SK-OV-3, SRB assay, 0.1–30 µM) is listed as 1 µM; in data set [8] (OVCAR-3, SRB assay, 0.1–30 µM) it was 1 µM. Also, the tumor growth inhibition result in data set [2], in [3], in [4], in data set [5], in data set [7] and in data set [10] was “Significant tumor growth inhibition” each time. Also, the “cytotoxicity (released LDH)” value is “strongest cytotoxicity” in data set [6] and “strong cytotoxic effect” in data set [9].

A word on the IC50: it is the concentration at which inhibition is half-maximal.
